# Laboratory results as given in patent publication US20100093748A1, “SUBSTITUTED PIPERIDINES HAVING PROTEIN KINASE INHIBITING ACTIVITY” (ASTEX THERAPEUTICS LIMITED, priority 2006, published 2010).
# Tested on: phosphorylation of Serine-9 residue in Glycogen Synthase Kinase-3beta as surrogate marker of cellular PKB (Akt) activity
# Test: In vitro MDA-MB-468 human breast adenocarcinoma GSK-3 phosphorylation assay
# Type: cell-based
# Settings: MDA-MB-468, 2 h, read-out: Cell pGSK3b IC50
# Description: This assay determines the ability of test compounds to inhibit phosphorylation of Serine-9 residue in Glycogen Synthase Kinase-3beta (GSK-313) as a surrogate marker of cellular PKB (Akt) activity, as assessed using Acumen Explorer Fluorescent Plate-Reader technology. A MDA-MB-468 human breast adenocarcinoma cell line (LGC Promochem, Teddington, Middlesex, UK, Catalogue No. HTB-132) was routinely maintained in Dulbecco's modified Eagle's growth medium (DMEM; Invitrogen Limited, Paisley, UK Catalogue No. 11966-025) containing 10% heat-inactivated foetal calf serum (FCS; Sigma, Poole, Dorset, UK, Catalogue No. F0392) and 1% L-glutamine (Gibco, Catalogue No. 25030-024) at 37° C. with 5% CO2 up to a confluency of 70-90%.
# For the phosphorylation assay, the cells were detached from the culture flask using Trypsin-EDTA (Invitrogen Limited, Catalogue No. 25300-062) and seeded into the wells of a black transparent-bottom Corning Costar Polystyrene 96 well plate (Fisher Scientific UK, Loughborough, Leicestershire, UK; Catalogue No. 3904 and DPS-130-020K) at a density of 5000 cells per well in 100 μl of complete growth media. The cells were incubated overnight at 37° C. with 5% CO2 to allow them to adhere.
# On day 2, the cells were treated with test compounds and incubated for 2 hours at 37° C. with 5% CO2. Test compounds were prepared as 10mM stock solutions in DMSO and dosed directly to required concentration into test wells using non-contact (acoustic dispensing of multiple 2.5 nl droplets directly into assay wells) ECHO dosing technology (Labcyte Inc Sunnyvale, Calif., USA). Each plate contained control wells without test compound.
# 20 μl of fixing buffer (Phosphate Buffered Saline (PBS) containing 10% formaldehyde; Sigma; Catalogue No. F1635) was then added to each well to give a final well concentration 1.6%. Plates were then incubated for 30 minutes at room temperature prior to the fixative being removed. Each well was washed once with 250 μl of PBS and then 50 μl PBS added to each well. PBS was then aspirated and cells permeabilised and blocked by incubating each well with 50 μl of permeabilisation/blocking buffer (PBS containing 0.5% Tween 20 (Sigma; Catalogue No. P5927) and 5% Marvel Milk Powder (Andrews Pharmacy Ltd, Macclesfield, Cheshire, UK; Catalogue No. APC100199)) for 1 hour at room temperature prior to staining.
# Following removal of Perm/Block buffer, 50 μl of primary anti-phospho-GSK-3β antibody (Cell Signalling Technology (New England Biolabs (Uk) Ltd.), Hitchin, Hertfordshire, UK; Catalogue No.9336 diluted 1:400 in Blocking buffer (PBS containing 5% Marvel and 0.05% Tween/Polysorbate 20) was added to each well and incubated overnight at 4° C.
# Each well was washed three times in 250 μl of wash buffer (PBS containing 0.05% polysorbate 20), and cells incubated for 1 hour at room temperature with 50 μl of secondary fluorescently-labelled anti-rabbit Alexa Fluor 488 antibody (Molecular Probes, Invitrogen Limited, Catalogue No. A11008) diluted 1:750 in blocking buffer. Plates were washed three times in 250 μl of wash buffer and stored containing 50 μl of PBS at 4° C. until required.
# Plates were analysed using an Acumen Explorer Plate-reader to quantify level of fluorescent signal that represents quantity of phosphorylated-GSK-313.
# IC50 calculation—IC50 is the concentration of compound required to give 50% effect over the range of activity affected by the compound, between maximum (no compound) and minimum (excess level of compound) response control data. IC50 values were determined by fitting background corrected, dose response assay data to a 4 parameter logistic curve fit equation model with the minimum response set to zero. This was done using an in-house developed algorithm within the Origin graphing software package (OriginLab Corporation, Northampton, Mass., USA). […]
row,SMILES,IC50
1,"COc1ccc(Oc2ccc3[nH]c(C4(N)CCN(c5ncnc6[nH]cnc56)CC4)nc3c2)cc1 [Example 63, 4-(5-(4-methoxyphenoxy)-1H-benzo[d]imidazol-2-yl)-1-(9H-purin-6-yl)piperidin-4-amine]",> 960 nM
2,"NC1(c2nc3cc(SC(F)(F)F)ccc3[nH]2)CCN(c2ncnc3[nH]ccc23)CC1 [Example 65, 1-(7H-Pyrrolo[2,3-d]pyrimidin-4-yl)-4-(5-(trifluoromethylthio)-1H-benzo[d]imidazol-2-yl)piperidin-4-amine]",420 nM

# Same assay, conditions: MDA-MB-468 cells, 2 hours compound incubation, mean IC50, read-out: Cell pGSK3b IC50
row,IC50,SMILES
1,160 nM,"NC1(c2nc3c(O)cccc3[nH]2)CCN(c2ncnc3[nH]ccc23)CC1 [Example 11, 2-[4-Amino-1-(7H-pyrrolo[2,3-d]pyrimidin-4-yl)-piperidin-4-yl]-1H-benzoimidazol-4-ol]"
2,660 nM,"NC1(c2nc3ccc(Cl)cc3[nH]2)CCN(c2ncnc3[nH]ccc23)CC1 [Example 13, 4-(6-chloro-1H-benzoimidazol-2-yl)-1-(7H-pyrrolo[2,3-d]pyrimidin-4-yl)-piperidin-4-ylamine]"
3,250 nM,"NC1(c2nc3ccc(Cl)cc3[nH]2)CCN(c2ncnc3[nH]cnc23)CC1 [Example 21, 4-(6-chloro-1H-benzoimidazol-2-yl)-1-(9H-purin-6-yl)-piperidin-4-ylamine]"
4,770 nM,"NC1(c2nc3ccc(Cl)cc3[nH]2)CCN(c2ncnc3[nH]ncc23)CC1 [Example 22, 4-(6-chloro-1H-benzoimidazol-2-yl)-1-(1H-pyrazolo[3,4-d]pyrimidin-4-yl)-piperidin-4-ylamine]"
5,86 nM,"NCC1(c2nc3ccccc3[nH]2)CCN(c2ncnc3[nH]ccc23)CC1 [Example 34D, C-[4-(1H-Benzoimidazol-2-yl)-1-(7H-pyrrolo[2,3-d]pyrimidin-4-yl)-piperidin-4-yl]-methylamine]"
6,< 31 nM,"NC1(c2nc3c(-c4ccccc4)cccc3[nH]2)CCN(c2ncnc3[nH]ccc23)CC1 [Example 42, 4-(4-Phenyl-1H-benzoimidazol-2-yl)-1-(7H-pyrrolo[2,3-d]pyrimidin-4-yl)-piperidin-ylamine]"
7,120 nM,"NCC1(c2nc3ccccc3[nH]2)CCN(c2ncnc3[nH]cnc23)CC1 [Example 44, (4-(1H-benzo[d]imidazol-2-yl)-1-(9H-purin-6-yl)piperidin-4-yl)methanamine]"
8,87 nM,"NCC1(c2nc3ccccc3[nH]2)CCN(c2ncnc3[nH]cc(Cl)c23)CC1 [Example 45, (4-(1H-benzo[d]imidazol-2-yl)-1-(5-chloro-7H-pyrrolo[2,3-d]pyrimidin-4-yl)piperidin-4-yl)methanamine]"
9,97 nM,"NCC1(c2nc3ccccc3[nH]2)CCN(c2ncnc3[nH]nc(Br)c23)CC1 [Example 46, (4-(1H-benzo[d]imidazol-2-yl)-1-(3-bromo-1H-pyrazolo[3,4-d]pyrimidin-4-yl)piperidin-4-yl)methanamine]"
10,170 nM,"Cc1c[nH]c2ncnc(N3CCC(CN)(c4nc5ccccc5[nH]4)CC3)c12 [Example 47, (4-(1H-benzo[d]imidazol-2-yl)-1-(5-methyl-7H-pyrrolo[2,3-d]pyrimidin-4-yl)piperidin-4-yl)methanamine]"
11,210 nM,"NCC1(c2nc3ccccc3[nH]2)CCN(c2ncnc3[nH]cc(Br)c23)CC1 [Example 48, (4-(1H-benzo[d]imidazol-2-yl)-1-(5-bromo-7H-pyrrolo[2,3-d]pyrimidin-4-yl)-piperidin-4-yl)methanamine]"
12,480 nM,"NC1(c2nc3ccc(C(F)(F)F)cc3[nH]2)CCN(c2ncnc3[nH]ccc23)CC1 [Example 50, 1-(7H-Pyrrolo[2,3-d]pyrimidin-4-yl)-4-[6-(trifluoromethyl)-1H-benzimidazol-2-yl]piperidin-4-amine]"
13,800 nM,"Cc1ccc2nc(C3(N)CCN(c4ncnc5[nH]ccc45)CC3)[nH]c2c1C [Example 51, 4-(6,7-dimethyl-1H-benzimidazol-2-yl)-1-(7H-pyrrolo[2,3-d]pyrimidin-4-yl)piperidin-4-amine]"
14,1300 nM,"NC1(c2nc3cc(F)c(Cl)cc3[nH]2)CCN(c2ncnc3[nH]ccc23)CC1 [Example 52, 4-(6-chloro-5-fluoro-1H-benzimidazol-2-yl)-1-(7H-pyrrolo[2,3-d]pyrimidin-4-yl)piperidin-4-amine]"
15,1800 nM,"NC1(c2nc3cc(Cl)c(Cl)cc3[nH]2)CCN(c2ncnc3[nH]ccc23)CC1 [Example 53, 4-(5,6-Dichloro-1H-benzoimidazol-2-yl)-1-(7H-pyrrolo[2,3-d]pyrimidin-4-yl)-piperidin-4-ylamine]"
16,> 2600 nM,"Cn1c(C2(N)CCN(c3ncnc4[nH]ccc34)CC2)nc2ccccc21 [Example 54, 4-(1-methylbenzimidazol-2-yl)-1-(7H-pyrrolo[2,3-d]pyrimidin-4-yl)piperidin-4-amine]"
17,2900 nM,"NC1(c2nc3cccnc3[nH]2)CCN(c2ncnc3[nH]ccc23)CC1 [Example 55, 4-(3H-imidazo[5,4-b]pyridin-2-yl)-1-(7H-pyrrolo[2,3-d]pyrimidin-4-yl)piperidin-4-amine]"
18,5500 nM,"NC1(c2nc3cc(-n4ccnc4)ccc3[nH]2)CCN(c2ncnc3[nH]ccc23)CC1 [Example 56, 4-(5-imidazol-1-yl-1H-benzimidazol-2-yl)-1-(7H-pyrrolo[2,3-d]pyrimidin-4-yl)piperidin-4-amine]"
19,> 2100 nM,"Cc1cc2[nH]c(C3(N)CCN(c4ncnc5[nH]ccc45)CC3)nc2cc1Cl [Example 57, 4-(5-chloro-6-methyl-1H-benzo[d]imidazol-2-yl)-1-(7H-pyrrolo[2,3-d]pyrimidin-4-yl)piperidin-4-amine]"
20,1400 nM,"Cc1cc(Cl)cc2nc(C3(N)CCN(c4ncnc5[nH]ccc45)CC3)[nH]c12 [Example 58, 4-(5-Chloro-7-methyl-1H-benzo[d]imidazol-2-yl)-1-(7H-pyrrolo[2,3-d]pyrimidin-4-yl)piperidin-4-amine]"
21,1900 nM,"CCN(CC)S(=O)(=O)c1ccc2[nH]c(C3(N)CCN(c4ncnc5[nH]ccc45)CC3)nc2c1 [Example 59, 2-(4-amino-1-(7H-pyrrolo[2,3-d]pyrimidin-4-yl)piperidin-4-yl)-N,N-diethyl-1H-benzo[d]imidazole-5-sulfonamide]"
22,8600 nM,"CN1CCN(c2ccc3[nH]c(C4(N)CCN(c5ncnc6[nH]ccc56)CC4)nc3c2)CC1 [Example 60, 4-(5-(4-methylpiperazin-1-yl)-1H-benzo[d]imidazol-2-yl)-1-(7H-pyrrlo[2,3-d]pyrimidin-4-yl)piperidin-4-amine]"
23,620 nM,"NC1(c2nc3cc(OC(F)(F)F)ccc3[nH]2)CCN(c2ncnc3[nH]ccc23)CC1 [Example 61, 1-(7H-Pyrrolo[2,3-d]pyrimidin-4-yl)-4-(5-(trifluoromethoxy)-1H-benzo[d]imidazol-2-yl)piperidin-4-amine]"
24,580 nM,"CC(C)c1ccc2[nH]c(C3(N)CCN(c4ncnc5[nH]ccc45)CC3)nc2c1 [Example 62, 4(5-isopropyl-1H-benzo[d]imidazol-2-yl)-1-(7H-pyrrolo[2,3-d]pyrimidin-4-yl)piperidin-4-amine]"
25,380 nM,"COc1ccc(Oc2ccc3[nH]c(C4(N)CCN(c5ncnc6[nH]ccc56)CC4)nc3c2)cc1 [Example 64, 4-(5-(4-Methoxyphenoxy)-1H-benzo[d]imidazol-2-yl)-1-(7H-pyrrolo[2,3-d]pyrimidin-4-yl)piperidin-4-amine]"
26,110 nM,"NCC1(c2nc3cc(Cl)ccc3[nH]2)CCN(c2ncnc3[nH]cnc23)CC1 [Example 66G, (4-(5-chloro-1H-benzo[d]imidazol-2-yl)-1-(9H-purin-6-yl)piperidin-4-yl)methanamine]"
